Measurements as given in ChEMBL document CHEMBL1136160, “Design, synthesis and evaluation of novel azasugar-based MMP/ADAM inhibitors” (Bioorg Med Chem Lett, 2003).

Legend:
Stromelysin-1 = Stromelysin-1 (Homo sapiens, UniProt P08254); assay: Inhibition of recombinant human matrix metalloprotease-3
[1] = target: Matrix metalloproteinase-9 (Homo sapiens, UniProt P14780); assay: Inhibition of recombinant human matrix metalloprotease-9 (gelatinase B)
Interstitial collagenase [2] = target: T1, Interstitial collagenase (Homo sapiens, UniProt P03956); assay: Inhibition of Recombinant human matrix metalloprotease-1
T1 sequence (P03956 whole entry): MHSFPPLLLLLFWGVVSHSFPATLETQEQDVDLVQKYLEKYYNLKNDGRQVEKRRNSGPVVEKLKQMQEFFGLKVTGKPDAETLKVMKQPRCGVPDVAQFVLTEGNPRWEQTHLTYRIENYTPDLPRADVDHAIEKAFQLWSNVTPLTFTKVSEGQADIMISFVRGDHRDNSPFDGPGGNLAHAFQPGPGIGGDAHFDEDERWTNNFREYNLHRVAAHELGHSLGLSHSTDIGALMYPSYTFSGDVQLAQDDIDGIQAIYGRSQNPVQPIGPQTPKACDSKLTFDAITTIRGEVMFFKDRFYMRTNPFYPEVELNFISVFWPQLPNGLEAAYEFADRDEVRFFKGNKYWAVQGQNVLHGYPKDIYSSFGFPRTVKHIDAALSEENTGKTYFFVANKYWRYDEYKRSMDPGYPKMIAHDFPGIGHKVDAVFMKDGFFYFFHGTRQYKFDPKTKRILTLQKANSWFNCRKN

[3] = target: Disintegrin and metalloproteinase domain-containing protein 17 (Homo sapiens, UniProt P78536); assay: Inhibition of recombinant human tumor necrosis factor-alpha converting enzyme
Chain of Disintegrin and metalloproteinase domain-containing protein 17 (P78536 whole entry, the tested form may be a part): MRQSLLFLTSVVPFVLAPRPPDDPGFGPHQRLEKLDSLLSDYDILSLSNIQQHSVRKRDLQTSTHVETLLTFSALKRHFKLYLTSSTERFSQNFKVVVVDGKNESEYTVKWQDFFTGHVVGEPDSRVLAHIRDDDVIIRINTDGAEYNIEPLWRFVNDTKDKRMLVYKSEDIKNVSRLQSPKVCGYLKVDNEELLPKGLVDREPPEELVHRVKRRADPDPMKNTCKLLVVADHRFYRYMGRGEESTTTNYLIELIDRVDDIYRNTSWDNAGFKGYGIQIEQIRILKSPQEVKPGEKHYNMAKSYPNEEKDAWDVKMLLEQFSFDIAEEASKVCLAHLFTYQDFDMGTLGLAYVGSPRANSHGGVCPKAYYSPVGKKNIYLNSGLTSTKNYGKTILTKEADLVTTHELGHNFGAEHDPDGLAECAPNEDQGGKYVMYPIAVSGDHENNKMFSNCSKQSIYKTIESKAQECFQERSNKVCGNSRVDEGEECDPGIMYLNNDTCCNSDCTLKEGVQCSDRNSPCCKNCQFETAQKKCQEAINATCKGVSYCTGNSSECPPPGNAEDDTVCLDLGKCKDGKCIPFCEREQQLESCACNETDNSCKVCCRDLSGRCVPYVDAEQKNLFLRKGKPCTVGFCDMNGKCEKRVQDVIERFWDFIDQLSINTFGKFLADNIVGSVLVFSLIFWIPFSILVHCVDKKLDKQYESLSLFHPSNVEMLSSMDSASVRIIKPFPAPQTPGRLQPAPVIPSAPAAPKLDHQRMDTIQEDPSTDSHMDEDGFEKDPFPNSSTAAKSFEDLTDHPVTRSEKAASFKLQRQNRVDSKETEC

Interstitial collagenase [4] = target: T1, Interstitial collagenase; assay: Inhibition of recombinant human matrix metalloprotease-1

Chain of Matrix metalloproteinase-9 (P14780 whole entry): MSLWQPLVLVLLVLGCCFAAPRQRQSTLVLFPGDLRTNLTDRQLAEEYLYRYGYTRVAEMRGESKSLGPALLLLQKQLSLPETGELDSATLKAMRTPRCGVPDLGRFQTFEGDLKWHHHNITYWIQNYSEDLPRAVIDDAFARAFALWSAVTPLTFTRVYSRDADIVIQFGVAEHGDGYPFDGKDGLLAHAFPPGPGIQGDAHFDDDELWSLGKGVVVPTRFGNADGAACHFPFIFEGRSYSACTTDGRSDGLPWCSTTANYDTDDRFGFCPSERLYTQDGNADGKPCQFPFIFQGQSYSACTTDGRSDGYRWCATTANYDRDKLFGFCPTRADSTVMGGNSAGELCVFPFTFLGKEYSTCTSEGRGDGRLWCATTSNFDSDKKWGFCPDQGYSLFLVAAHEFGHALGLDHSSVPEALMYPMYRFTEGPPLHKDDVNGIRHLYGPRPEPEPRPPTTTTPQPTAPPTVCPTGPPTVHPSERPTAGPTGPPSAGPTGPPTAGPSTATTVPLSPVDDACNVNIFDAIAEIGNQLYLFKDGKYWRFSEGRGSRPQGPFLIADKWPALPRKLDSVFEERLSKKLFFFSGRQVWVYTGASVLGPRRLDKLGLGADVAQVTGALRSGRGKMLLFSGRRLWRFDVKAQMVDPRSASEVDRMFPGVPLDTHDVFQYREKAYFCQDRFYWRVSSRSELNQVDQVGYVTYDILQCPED
Chain of Stromelysin-1 (P08254 whole entry): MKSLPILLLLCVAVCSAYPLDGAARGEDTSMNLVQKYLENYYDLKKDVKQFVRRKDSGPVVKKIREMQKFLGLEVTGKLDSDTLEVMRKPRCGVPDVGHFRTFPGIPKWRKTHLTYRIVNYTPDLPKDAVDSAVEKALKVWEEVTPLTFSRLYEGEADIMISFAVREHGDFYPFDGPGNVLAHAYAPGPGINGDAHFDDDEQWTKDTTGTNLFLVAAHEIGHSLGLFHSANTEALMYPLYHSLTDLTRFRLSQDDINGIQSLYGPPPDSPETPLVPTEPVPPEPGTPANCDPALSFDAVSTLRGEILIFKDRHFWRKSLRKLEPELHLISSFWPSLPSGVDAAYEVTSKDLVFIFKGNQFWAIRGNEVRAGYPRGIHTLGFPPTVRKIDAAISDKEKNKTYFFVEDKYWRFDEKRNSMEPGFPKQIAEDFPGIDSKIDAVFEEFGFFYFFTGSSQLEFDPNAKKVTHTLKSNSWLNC

| Ki (Stromelysin-1) [nM] | Ki [1] [nM] | Ki (Interstitial collagenase [2]) [nM] | Ki (Interstitial collagenase [4]) [nM] | Compound | Ki [3] [nM] |
| --- | --- | --- | --- | --- | --- |
| 50 | 47 | 162 |  | COc1ccc(S(=O)(=O)N2C[C@@H]3OC(C)(C)O[C@H]3[C@@H](OC(C)=O)[C@@H]2C(=O)NO)cc1 | 21 |
| 3.7 | 21 | 26 |  | COc1ccc(S(=O)(=O)N2C[C@@H]3OC(C)(C)O[C@H]3[C@@H](O)[C@@H]2C(=O)NO)cc1 | 40 |
| 44 | 310 |  | 554 | COc1ccc(S(=O)(=O)N2C[C@H](O)[C@H]3OC(C)(C)O[C@H]3[C@@H]2C(=O)NO)cc1 | 22 |
